Our source for the Kd values is PubChem BioAssay AID1033 (Sanford-Burnham Center for Chemical Genomics, 2008).

Activity calls are given as the source filed them. How the calls were made is not given here.

In the experiment the target is Chaperone protein DnaK (Escherichia coli (strain K12)) (UniProt P0A6Y8). In words: E. coli DnaK SBD ligand binding – biophysical, NMR, chaperone (AID 1033). Conditions: Purified DnaK SBD.
Sequence of Chaperone protein DnaK (Escherichia coli (strain K12)) (P0A6Y8 whole entry, looked up): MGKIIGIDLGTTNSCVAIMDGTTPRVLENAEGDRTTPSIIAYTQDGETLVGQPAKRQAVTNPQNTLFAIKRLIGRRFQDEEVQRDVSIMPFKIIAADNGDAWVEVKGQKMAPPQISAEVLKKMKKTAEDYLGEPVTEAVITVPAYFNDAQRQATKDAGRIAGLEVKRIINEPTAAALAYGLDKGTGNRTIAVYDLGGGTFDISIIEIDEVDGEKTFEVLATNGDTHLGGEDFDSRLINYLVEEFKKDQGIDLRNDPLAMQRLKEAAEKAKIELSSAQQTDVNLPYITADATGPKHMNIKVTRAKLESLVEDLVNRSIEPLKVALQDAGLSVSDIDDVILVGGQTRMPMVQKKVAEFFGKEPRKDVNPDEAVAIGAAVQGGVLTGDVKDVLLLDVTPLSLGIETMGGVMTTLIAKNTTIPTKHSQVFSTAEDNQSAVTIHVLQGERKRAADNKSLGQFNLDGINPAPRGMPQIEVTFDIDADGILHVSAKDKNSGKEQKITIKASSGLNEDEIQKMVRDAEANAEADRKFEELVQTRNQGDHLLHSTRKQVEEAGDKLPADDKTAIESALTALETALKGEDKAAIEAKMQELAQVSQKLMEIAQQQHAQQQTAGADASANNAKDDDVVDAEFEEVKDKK

The term Kd denotes the free concentration of one partner at which half of the binding sites on the other are occupied at equilibrium, for simple one-to-one binding. For the molecule `NC(=O)C1CC2C=CC1C2` (configuration not stated), the Kd is > 4 mM (inactive).

`CC(=O)NC(C)C12CC3CC(CC(C(=O)O)(C3)C1)C2` (configuration not stated): the Kd was > 4 mM (inactive).

Consider `Nc1nc(SCC(=O)c2ccc([N+](=O)[O-])cc2)n[nH]1`, for which the Kd is > 4 mM (inactive).

Turning to `NC(Cn1ccc(=O)c(O)c1)C(=O)O` (configuration not stated), the Kd is > 4 mM (inactive).

`OC(c1ccccc1)c1ccccn1` (configuration not stated): the Kd is > 4 mM (inactive).

Turning to `O=C(O)CNC(=O)c1ccccc1`, the Kd is > 4 mM (inactive).

Regarding `C=CC(C)(O)CC/C=C(\C)CCC=C(C)C` (configuration not stated), the Kd is > 4 mM (inactive).

With `CC1(C)CC23C(=O)CCC(O)C2(C)CCC13` (configuration not stated), the Kd is > 4 mM (inactive).

Consider `O=C1C=CC(=O)N1c1ccccc1O`, for which the Kd was > 4 mM (inactive).

As to `COc1ccc2c(c1)OCC(Cc1ccc(OC)c(O)c1)C2=O` (configuration not stated), the Kd was > 4 mM (inactive).

As for `COc1cc(O)c(C)c(O)c1`, the Kd was > 4 mM (inactive).

As to `CC(C)(OC(=O)c1ccccc1)[C@@H]1Cc2cc3ccc(=O)oc3cc2O1`, the Kd is > 4 mM (inactive).

For `O=CN1CCN(C(=O)c2ccco2)CC1`, the Kd is > 4 mM (inactive).

With `O=c1cccc2n1CC1CC2CN2CCCC[C@@H]12` (some centres not stated), the Kd was > 4 mM (inactive).

As for `O=C(O)CCN1CCOCC1`, the Kd was > 4 mM (inactive).

Turning to `C=C1CCC(=O)C(C)CCC2C1CC2(C)C` (configuration not stated), the Kd was > 4 mM (inactive).

With `NC(=S)CN1CCCC1=O`, the Kd was > 4 mM (inactive).

Regarding `O=C(NCc1cccc(Cl)c1)c1cnccn1`, the Kd was > 4 mM (inactive).

As for `Nc1ccncc1`, the Kd is > 4 mM (inactive).

Consider `CC1(C)CC[C@]2(C(=O)O)CC[C@]3(C)C(=CCC4[C@@]5(C)CC[C@@H](O)C(C)(C)C5CC[C@]43C)C2C1` (some centres not stated), for which the Kd is > 4 mM (inactive).

Take `O=C(NC1CCS(=O)(=O)C1)c1ccccc1` (configuration not stated): the Kd is > 4 mM (inactive).

`CC(O)c1nc2ccccc2[nH]1` (configuration not stated): the Kd is > 4 mM (inactive).

Regarding `O=C(NCCO)c1ccccc1I`, the Kd is > 4 mM (inactive).

For the molecule `Cn1cc(Cl)c(C(=O)NC2CCCC2)n1`, the Kd is > 4 mM (inactive).

Regarding `O=c1nc(N2CCOCC2)nc2n1CCO2`, the Kd was > 4 mM (inactive).

For `O=C(Nc1ccon1)c1ccc(Br)o1`, the Kd was > 4 mM (inactive).

Consider `O/N=C1/CCCc2nonc21`, for which the Kd is > 4 mM (inactive).

Turning to `N#CCSc1nnc2ccc3ccccc3n12`, the Kd was > 4 mM (inactive).

Take `CCOc1ccc(-c2n[nH]c(=S)n2C)cc1`: the Kd was > 4 mM (inactive).

Take `CC(=O)Nc1cnn(Cc2ccc(Br)cc2)c1`: the Kd was > 4 mM (inactive).

Take `O=C(O)c1cncc(-c2cccs2)c1`: the Kd is > 4 mM (inactive).

With `S=c1[nH]ncn1-c1ccccc1`, the Kd was > 4 mM (inactive).

For the molecule `COCCn1c(C)cc(O)cc1=O`, the Kd was > 4 mM (inactive).

In the case of `CC(=O)Nc1ccc(NC2SC(=O)NC2=O)cc1` (configuration not stated), the Kd was > 4 mM (inactive).

With `CCCCCCCCCCCCCCCCCCOCC(O)CO` (configuration not stated), the Kd was > 4 mM (inactive).

For `C[N+](C)(C)CC(O)CC(=O)O` (configuration not stated), the Kd is > 4 mM (inactive).

Turning to `O=[N+]([O-])c1ccc2c(c1)N([O-])C1(CCCCC1)[N+]2=O`, the Kd is > 4 mM (inactive).

In the case of `O=c1[nH]c(=S)c2c(n1-c1ccccc1)CCC2`, the Kd is > 4 mM (inactive).

Take `Nc1ccc2c(c1)CCC2=O`: the Kd is > 4 mM (inactive).

Regarding `Nc1ncccc1OCc1ccccc1`, the Kd is > 4 mM (inactive).

Take `CC(=O)c1cccc(N=C2NC(=O)CS2)c1`: the Kd was > 4 mM (inactive).

For the molecule `O=C(NCc1ccccc1)c1ccc[n+]([O-])c1`, the Kd was > 4 mM (inactive).

Regarding `O=C(NN1CCOCC1)c1cccs1`, the Kd was > 4 mM (inactive).

Take `N#Cc1nc(N2CCCCC2)nc(N2CCOCC2)n1`: the Kd was > 4 mM (inactive).

On to `Cn1ncc(CO)c1-c1ccccc1`, for which the Kd is > 4 mM (inactive).

As for `Nc1ccc2c(c1)OCCO2`, the Kd is > 4 mM (inactive).

Take `COc1ccc2nc(SCC(N)=O)[nH]c2c1`: the Kd was > 4 mM (inactive).

Consider `NCCC(=O)N[C@@H](Cc1cnc[nH]1)C(=O)O`, for which the Kd is > 4 mM (inactive).

For the molecule `Cc1c(N=Cc2ccco2)c(=O)n(-c2ccccc2)n1C`, the Kd was > 4 mM (inactive).

As to `O=c1[nH]cnc2c1nnn2Cc1ccccc1`, the Kd is > 4 mM (inactive).

With `CN1CCC(NC(=O)Cc2c(F)cccc2Cl)CC1`, the Kd was > 4 mM (inactive).

As to `Cc1ccc(CN2CCNC(=O)C2CC(=O)O)o1` (configuration not stated), the Kd was > 4 mM (inactive).

`CN(C)N1C(=O)C2CCCCC2C1=O` (configuration not stated): the Kd is > 4 mM (inactive).

For the molecule `OCc1ccc2c(c1)OCO2`, the Kd was > 4 mM (inactive).

Take `NC(=O)N1CCc2ccccc21`: the Kd is > 4 mM (inactive).

Take `CC1CN(Cc2ccccn2)CCC1=O` (configuration not stated): the Kd is > 4 mM (inactive).

Turning to `Cc1ccc(C)n1NC(=O)c1ccco1`, the Kd is > 4 mM (inactive).

For `Nc1ncnc(NCCO)c1[N+](=O)[O-]`, the Kd was > 4 mM (inactive).

Consider `Oc1ccc([C@H]2Oc3cc(O)cc(O)c3C[C@H]2O)cc1`, for which the Kd is > 4 mM (inactive).

Turning to `CC(=O)Nn1cc2c(=O)n(C)c(=O)n(C)c2c1`, the Kd was > 4 mM (inactive).

Take `CC(C)CNc1cc(=O)n(C)c(=O)n1C`: the Kd is > 4 mM (inactive).

As to `O=C(NC1CCS(=O)(=O)C1)c1cccs1` (configuration not stated), the Kd was > 4 mM (inactive).

As to `CC(=O)Oc1c2c(c(CC=C(C)C)c3c1C(=O)C1=C[C@@H]4CC5C(C)(C)OC(C/C=C(\C)C(=O)O)(C4=O)[C@@]15O3)OC(C)(CCC=C(C)C)C=C2` (some centres not stated), the Kd is > 4 mM (inactive).

For `O=C(Nc1ccccc1)Nc1ccccn1`, the Kd is > 4 mM (inactive).

Regarding `CCOc1ccc(C(=O)c2ccc(OC)c(O)c2O)cc1`, the Kd was > 4 mM (inactive).

Regarding `Nc1ccc2c(c1)CCCC2=O`, the Kd is > 4 mM (inactive).

As for `O=c1[nH]cc(CN2CCOCC2)c(=O)[nH]1`, the Kd is > 4 mM (inactive).

With `CC[C@H]1CN2CCC1C[C@@H]2[C@@H](O)c1ccnc2ccc(OC)cc12` (some centres not stated), the Kd is > 4 mM (inactive).

Take `O=c1cccc2n1C[C@H]1CNCC2C1`: the Kd was > 4 mM (inactive).

Turning to `COc1ccc2c(c1OC)C(=O)OC2[C@H]1c2c(cc3c(c2OC)OCO3)CCN1C` (some centres not stated), the Kd was > 4 mM (inactive).

Turning to `Cc1cc(=O)n2nc(-c3ccccc3)sc2n1`, the Kd was > 4 mM (inactive).

On to `Cc1nc2nc(Cc3ccccc3)nn2c(C)c1Cl`, for which the Kd is > 4 mM (inactive).

`O=c1sc2ccccc2n1CN1CCOCC1`: the Kd was > 4 mM (inactive).

For `CC1CN(C2=NCCN2)CC(C)O1` (configuration not stated), the Kd is > 4 mM (inactive).

Regarding `Cc1cc(C(=O)NCc2cccs2)c(C)o1`, the Kd was > 4 mM (inactive).

Regarding `COC(=O)c1ccc2nccnc2c1`, the Kd is > 4 mM (inactive).

Take `CNC(=O)C1=NCCCc2cc(OC)c(OC)cc21`: the Kd is > 4 mM (inactive).

On to `CC(=O)NC1(NC(C)=O)CCN(C)CC1`, for which the Kd was > 4 mM (inactive).

With `CN1CCN(CC(=O)N2CCc3ccccc32)CC1`, the Kd is > 4 mM (inactive).

Take `COCCOc1nc2ccccc2nc1C`: the Kd was > 4 mM (inactive).

Consider `Cc1sc2nc(SCC(=O)N(C)C)[nH]c(=O)c2c1C`, for which the Kd was > 4 mM (inactive).

`COc1ccc(Cl)cc1-c1n[nH]c(=S)n1C`: the Kd was > 4 mM (inactive).

For `O=c1[nH]c2sc3c(c2c2nncn12)CCCC3`, the Kd is > 4 mM (inactive).

With `O=c1cnnc(N2CCCCC2)[nH]1`, the Kd is > 4 mM (inactive).

Consider `Cc1ccccc1NC(=O)N1CCOCC1`, for which the Kd was > 4 mM (inactive).

Take `CC(C)=CCC/C(C)=C/CC/C(C)=C/CC/C(C)=C/CC/C(C)=C/CC/C(C)=C/CC/C(C)=C/CC/C(C)=C/CC/C(C)=C/CO`: the Kd was > 4 mM (inactive).

For `CC(=O)O[C@@H]1CC[C@@]2(C)C(CC[C@]3(C)C2CC=C2C4CC(C)(C)CC[C@]4(C(=O)O)CC[C@]23C)C1(C)C` (some centres not stated), the Kd is > 4 mM (inactive).

As to `OCc1cccs1`, the Kd is > 4 mM (inactive).

For the molecule `NC(=O)CCS(=O)(=O)CCN1CCOCC1`, the Kd was > 4 mM (inactive).

On to `Cc1nc2sc3c(c2c(=N)n1N)CC(C)(C)OC3`, for which the Kd was > 4 mM (inactive).

Consider `O=C(NCc1ccc2c(c1)OCO2)c1cccs1`, for which the Kd was > 4 mM (inactive).

As to `CN1CC(=O)Nc2ccc([N+](=O)[O-])cc2C1=O`, the Kd was > 4 mM (inactive).

As for `O=C(Cn1cncn1)c1ccc(F)c(F)c1`, the Kd is > 4 mM (inactive).

As to `CC(=O)Oc1c(-c2ccccc2)oc2c(CC=C(C)C)c3c(c(OC(C)=O)c2c1=O)C=CC(C)(C)O3`, the Kd was > 4 mM (inactive).

On to `Cc1cc(NC(=O)Cc2c(F)cccc2Cl)no1`, for which the Kd was > 4 mM (inactive).

Turning to `O=[n+]1c2c(n([O-])c3ccccc31)CCCC2`, the Kd is > 4 mM (inactive).

Take `COc1ccc(C2(C)CC(=O)NC2=O)cc1` (configuration not stated): the Kd was > 4 mM (inactive).

For the molecule `CS(C)=C1C(=O)NC(=O)N(c2ccccc2)C1=O`, the Kd is > 4 mM (inactive).

As for `Cn1ccnc1C(O)c1ccccc1` (configuration not stated), the Kd is > 4 mM (inactive).

Regarding `Cc1ccc2c(c1)=C(c1sc(N)nc1O)C(=O)N=2`, the Kd was > 4 mM (inactive).

`NCCCCN`: the Kd was > 4 mM (inactive).

As for `O=[n+]1cc(-c2ccccc2)n([O-])c2c1CCC2`, the Kd was > 4 mM (inactive).

As to `Cc1cc(C)n2nc(-c3cccnc3)nc2n1`, the Kd was > 4 mM (inactive).

As to `CC(C)=CC(=O)Nc1ccc(S(N)(=O)=O)cc1`, the Kd was > 4 mM (inactive).

Take `NCC(N)C(=O)c1ccccc1` (configuration not stated): the Kd is > 4 mM (inactive).

Take `C[C@H]1CCCC(=O)CCC/C=C/c2cc(O)cc(O)c2C(=O)O1`: the Kd is > 4 mM (inactive).

Consider `Nc1ccc(Cc2ccc(N)cc2)cc1`, for which the Kd is > 4 mM (inactive).
